Series [1] concerns the target T1, Cholesterol 24-hydroxylase (Homo sapiens, UniProt Q9Y6A2). Description: Stimulation of full-length recombinant human CYP46A1 assessed as cholesterol hydroxylation at 43 uM using cholesterol as substrate in presence of NADPH cytochrome P450 oxidoreductase by gas chromatography-mass spectrometry.
Target sequence in this assay (Q9Y6A2 whole entry, looked up): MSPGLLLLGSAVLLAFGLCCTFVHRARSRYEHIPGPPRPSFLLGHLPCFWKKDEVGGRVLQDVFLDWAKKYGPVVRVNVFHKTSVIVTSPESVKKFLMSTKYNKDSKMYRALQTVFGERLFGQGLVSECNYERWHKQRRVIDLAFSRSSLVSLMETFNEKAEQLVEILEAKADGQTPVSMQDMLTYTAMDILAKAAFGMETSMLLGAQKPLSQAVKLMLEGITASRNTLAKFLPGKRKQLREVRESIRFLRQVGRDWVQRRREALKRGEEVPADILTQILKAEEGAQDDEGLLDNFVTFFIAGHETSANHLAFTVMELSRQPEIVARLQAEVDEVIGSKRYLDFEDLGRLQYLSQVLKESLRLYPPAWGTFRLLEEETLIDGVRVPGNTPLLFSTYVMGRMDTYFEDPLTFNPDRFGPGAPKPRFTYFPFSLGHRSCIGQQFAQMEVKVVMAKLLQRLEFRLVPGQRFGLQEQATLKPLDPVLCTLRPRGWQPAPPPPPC
In series [2] the target is T2, Sterol 26-hydroxylase, mitochondrial (Homo sapiens) (UniProt Q02318).
T2 sequence (whole entry): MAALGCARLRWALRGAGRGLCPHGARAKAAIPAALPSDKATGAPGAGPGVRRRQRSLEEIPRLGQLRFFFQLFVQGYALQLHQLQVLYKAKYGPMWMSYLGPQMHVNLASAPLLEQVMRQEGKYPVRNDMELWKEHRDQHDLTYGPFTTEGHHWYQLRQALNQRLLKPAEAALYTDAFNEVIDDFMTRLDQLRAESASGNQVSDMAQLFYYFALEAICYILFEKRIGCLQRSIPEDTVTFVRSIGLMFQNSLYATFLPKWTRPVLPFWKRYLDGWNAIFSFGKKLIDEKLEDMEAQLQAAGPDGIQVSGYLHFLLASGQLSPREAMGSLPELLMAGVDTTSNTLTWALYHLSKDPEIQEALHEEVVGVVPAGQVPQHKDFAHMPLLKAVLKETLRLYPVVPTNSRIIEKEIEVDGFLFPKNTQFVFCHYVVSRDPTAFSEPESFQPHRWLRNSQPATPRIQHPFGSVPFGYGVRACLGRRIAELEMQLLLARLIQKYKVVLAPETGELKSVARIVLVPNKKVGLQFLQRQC
Briefly: Binding affinity to full-length recombinant human CYP27A1 assessed as induction of spectral shift up to 100 uM by spectral binding study.

Series [3] is filed under the species Mus musculus. Particulars: C57/B6J, 60 mg/kg.
Description: In-vivo inhibition of CYP46A1 in C57/B6J mouse brain assessed as reduction in lathosterol level at 60 mg/kg, ip dosed qd for 5 days by isotope dilution mass-spectrometry relative to control
The target of series [4] is T3, Cholesterol side-chain cleavage enzyme, mitochondrial (Bos taurus, UniProt P00189).
T3 sequence (P00189 whole entry): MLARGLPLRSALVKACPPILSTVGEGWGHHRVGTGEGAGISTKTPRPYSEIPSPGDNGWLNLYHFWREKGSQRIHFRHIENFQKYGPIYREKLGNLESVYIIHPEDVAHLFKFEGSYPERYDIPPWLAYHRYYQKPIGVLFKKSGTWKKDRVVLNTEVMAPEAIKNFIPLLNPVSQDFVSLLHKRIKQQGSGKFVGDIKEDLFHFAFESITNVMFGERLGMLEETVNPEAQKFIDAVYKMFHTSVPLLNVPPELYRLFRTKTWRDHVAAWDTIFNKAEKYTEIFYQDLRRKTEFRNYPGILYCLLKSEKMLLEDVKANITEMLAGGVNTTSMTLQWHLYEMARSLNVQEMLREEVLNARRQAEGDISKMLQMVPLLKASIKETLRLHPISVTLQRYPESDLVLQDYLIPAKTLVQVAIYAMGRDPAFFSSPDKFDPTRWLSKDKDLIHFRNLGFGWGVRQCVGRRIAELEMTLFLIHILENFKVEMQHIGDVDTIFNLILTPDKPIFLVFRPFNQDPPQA
Briefly: Binding affinity to active site of bovine CYP11A1 assessed as induction of type-II spectral response by spectral binding study. Particulars: cattle.

The species named for series [5] is Mus musculus. Particulars: C57/B6J, 75 mg/kg.
For series [6], the species on record is Mus musculus. Particulars: C57/B6J, 60 mg/kg. This is another data set of the same source.
Series [7] concerns Mus musculus. Description: In-vivo inhibition of CYP46A1 in C57/B6J mouse plasma assessed as reduction in 24S-hydroxy cholesterol at 60 mg/kg, ip dosed qd for 5 days by isotope dilution mass-spectrometry relative to control. In kind it is functional. Particulars: 120 h.
Series [8] addresses T1, Cholesterol 24-hydroxylase. Description: Binding affinity to active site of full-length recombinant human CYP46A1 assessed as induction of type-II spectral response with minimum at 413 nm and maximum at 434 nm by spectral binding study.
Target sequence in this assay (Q9Y6A2 whole entry, looked up): as the sequence (Q9Y6A2 whole entry, looked up) above
The target of series [9] is T1, Cholesterol 24-hydroxylase. Description: Inhibition of full-length recombinant human CYP46A1 assessed as cholesterol hydroxylation using cholesterol as substrate in presence of NADPH cytochrome P450 oxidoreductase by gas chromatography-mass spectrometry.
Target sequence in this assay (Q9Y6A2 whole entry): as the sequence (Q9Y6A2 whole entry, looked up) above
The target in series [10] is T1, Cholesterol 24-hydroxylase. Description: Binding affinity to full-length recombinant human CYP46A1 by spectral binding study.
Target sequence in this assay (Q9Y6A2 whole entry, looked up): as the sequence (Q9Y6A2 whole entry, looked up) above

Each structure is given as a SMILES string. pKi: −log10 of the molar value. Calls of active or inactive are those of the source. The rule behind the calls is not given here.

For `COc1ccc(NC(C)=O)cc1`, the Activity in series [1] turned out to be 100%. On to `CCOc1ccc(N)cc1`, for which the Activity in [1] turned out to be 50%. On the same count and under the same terms, for `CCCCOc1ccc(NC(C)=O)cc1` the value was 107%; for `CC(=O)Nc1ccccc1O`, 103%. In the case of `CC(=O)Nc1cccc(O)c1`, the Activity in series [1] came out at 87%. Turning to `CC(=O)Nc1ccc(CO)cc1`, the Activity in [1] came to 112%. As for `C[C@@H](c1ncncc1F)[C@](O)(Cn1cncn1)c1ccc(F)cc1F` [VORICONAZOLE], the outcome in series [2] was inactive. For the same compound, the inhibition entry in the series listed under Mus musculus [3], in the series listed under Mus musculus [5] and in the series filed under Mus musculus [6] was “Active” each time. In [4], the outcome was Active. Besides, the inhibition in vivo at 60 mg/kg with Mus musculus [7] stood at 30%. For the same compound, the outcome in [8] was Active.

Regarding `CC(=O)Nc1ccc(C)cc1`, the Activity in series [1] was determined as 112%.

With `CC(=O)[C@H]1CC[C@H]2[C@@H]3CC=C4C[C@@H](OS(=O)(=O)O)CC[C@]4(C)[C@H]3CC[C@]12C`, in [9], the pKi was 5.60.

Turning to `CCOc1ccc(NC(=O)CC)cc1`, the Activity in series [1] is 101%. In the case of `CC(=O)[C@H]1CC[C@H]2[C@@H]3CC=C4C[C@@H](O)CC[C@]4(C)[C@H]3CC[C@]12C`, the result in series [10] was inactive.

Turning to `CC(=O)Nc1ccc(O)cc1`, the Activity in series [1] is 132%.

The record behind these values is ChEMBL document CHEMBL4417626, “Post-Translational Regulation of Catalytic Activities of Cytochrome P450 46A1 and Uses Thereof” (2017).
